ChEMBL document CHEMBL1136294, “Aryloxazolidinediones: identification of potent orally active PPAR dual alpha/gamma agonists” (Bioorg Med Chem Lett, 2003)
pEC50, pIC50: −log10 of the molar value.

Legend:
[1] = biological target: T1, Peroxisome proliferator-activated receptor delta (Homo sapiens, UniProt Q03181)
T1 sequence (Q03181 whole entry): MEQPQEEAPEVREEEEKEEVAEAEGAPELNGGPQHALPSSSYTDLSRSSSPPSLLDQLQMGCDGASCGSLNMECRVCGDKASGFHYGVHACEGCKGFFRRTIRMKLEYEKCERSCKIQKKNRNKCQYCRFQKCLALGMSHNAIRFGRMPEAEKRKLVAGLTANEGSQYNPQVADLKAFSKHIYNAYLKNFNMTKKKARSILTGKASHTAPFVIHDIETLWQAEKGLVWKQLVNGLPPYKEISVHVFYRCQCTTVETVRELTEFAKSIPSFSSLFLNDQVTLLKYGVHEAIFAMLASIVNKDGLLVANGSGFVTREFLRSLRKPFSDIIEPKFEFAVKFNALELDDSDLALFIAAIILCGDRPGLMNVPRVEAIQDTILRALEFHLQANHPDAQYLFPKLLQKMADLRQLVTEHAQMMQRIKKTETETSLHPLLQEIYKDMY
Description: In vitro binding affinity was tested towards human Peroxisome proliferator activated receptor delta

[2] = biological target: T1, Peroxisome proliferator-activated receptor delta; type: functional
Description: In vitro activity in human Peroxisome proliferator activated receptor delta-transactivation assay

in vivo [3] = conditions: Sprague-Dawley, rat, po
Description: Oral bioavailability in rat (Sprague-Dawley)

Rattus norvegicus [4] = species on record: Rattus norvegicus; conditions: in vivo
Description: Area under curve in SD rats

in vivo [5] = conditions: Sprague-Dawley, rat, po, 2 mg/kg
Description: Clearance in Sprague-Dawley rats after 2mg/kg oral dose

[6] = biological target: T2, Peroxisome proliferator-activated receptor alpha (Homo sapiens, UniProt Q07869); type: functional
T2 sequence (Q07869 whole entry): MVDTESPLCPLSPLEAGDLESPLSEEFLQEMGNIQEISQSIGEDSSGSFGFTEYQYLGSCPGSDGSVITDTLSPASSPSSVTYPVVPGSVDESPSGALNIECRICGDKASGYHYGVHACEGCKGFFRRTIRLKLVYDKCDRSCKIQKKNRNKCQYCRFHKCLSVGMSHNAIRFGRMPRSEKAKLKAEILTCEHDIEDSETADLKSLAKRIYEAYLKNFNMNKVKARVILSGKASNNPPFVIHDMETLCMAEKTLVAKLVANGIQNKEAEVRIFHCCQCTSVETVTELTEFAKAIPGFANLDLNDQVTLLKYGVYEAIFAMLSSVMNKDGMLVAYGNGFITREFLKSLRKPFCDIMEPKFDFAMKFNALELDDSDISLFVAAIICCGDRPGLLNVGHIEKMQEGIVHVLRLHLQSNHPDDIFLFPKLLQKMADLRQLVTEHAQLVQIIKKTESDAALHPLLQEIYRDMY
Description: In vitro activity in human Peroxisome proliferator activated receptor alpha-transactivation assay

in vivo [7] = conditions: Sprague-Dawley, rat
Description: Half life period in SD rats

[8] = biological target: T2, Peroxisome proliferator-activated receptor alpha
Description: In vitro binding affinity was tested towards human Peroxisome proliferator activated receptor alpha

Rattus norvegicus [9] = species on record: Rattus norvegicus; conditions: in vivo, po
Description: Area under curve for a 2-mpk po dose in SD rats

Row | Structure (SMILES) | pIC50 [1] | pEC50 [2] | also measured
1 | CCCc1cc(C=C2CCCCC2)ccc1OCCCOc1cccc(C2SC(=O)NC2=O)c1 (stereo unspecified) | < 4.30 | < 5.52 | –
2 | CCCc1cc(C2CCOCC2)ccc1OCCCOc1cccc(C2OC(=O)NC2=O)c1 (stereo unspecified) | < 4.30 | – | –
3 | CCCc1cc(C2CCCCCC2)ccc1OCCCOc1cccc(C2OC(=O)NC2=O)c1 (stereo unspecified) | < 4.30 | < 5.52 | –
4 | CCCc1cc(OC2CCCCCC2)ccc1OCCCOc1cccc(C2SC(=O)NC2=O)c1 (stereo unspecified) | < 4.30 | – | –
5 | CCCc1cc(C2CCCCC2)ccc1OCCCOc1cccc(C2OC(=O)NC2=O)c1 (stereo unspecified) | < 4.30 | < 5.52 | –
6 | CCCc1cc(C2CCC(C)(C)CC2)ccc1OCCCOc1cccc(C2OC(=O)NC2=O)c1 (stereo unspecified) | < 4.30 | < 5.52 | –
7 | CCCc1cc(C(=O)C2CCCCC2)ccc1OCCCOc1cccc(C2SC(=O)NC2=O)c1 (stereo unspecified) | < 4.30 | < 5.52 | bioavailability (in vivo [3]): 7.8%; AUC (Rattus norvegicus [4]): 0.07 µM; CL/F (in vivo [5]): 29.5 mL/min/kg
8 | CCCc1cc(OC2CCCCC2)ccc1OCCCOc1cccc(C2SC(=O)NC2=O)c1 (stereo unspecified) | < 4.30 | < 5.52 | bioavailability (in vivo [3]): 10%; AUC (Rattus norvegicus [4]): 0.3 µM
9 | CCCc1cc(CC2CCCCC2)ccc1OCCCOc1cccc(C2SC(=O)NC2=O)c1 (stereo unspecified) | < 4.30 | < 5.52 | –
10 | CCCc1cc(C2CCC(F)(F)CC2)ccc1OCCCOc1cccc(C2OC(=O)NC2=O)c1 (stereo unspecified) | < 4.30 | < 5.52 | –
11 | CCCc1cc(C2CCC(=O)CC2)ccc1OCCCOc1cccc(C2OC(=O)NC2=O)c1 (stereo unspecified) | < 4.30 | – | –

Now from value to compound, other results behind:

Row | pIC50 [1] | pEC50 [2] | Structure (SMILES) | also measured
12 | < 4.30 | – | CCCc1cc(C2CCC(O)CC2)ccc1OCCCOc1cccc(C2OC(=O)NC2=O)c1 (stereo unspecified) | –
13 | 5.41 | – | CCCc1cc(C2CCCC2)ccc1OCCCOc1cccc(C2OC(=O)NC2=O)c1 (stereo unspecified) | –
14 | < 4.30 | < 5.52 | CCCc1cc(C(=O)c2ccc(Cl)cc2)ccc1OCCCOc1cccc(C2SC(=O)NC2=O)c1 (stereo unspecified) | –
15 | 6.04 | – | CCCc1cc(OC2CCCC2)ccc1OCCCOc1cccc(C2SC(=O)NC2=O)c1 (stereo unspecified) | –
16 | < 5.30 | < 5.52 | CCCc1ccccc1OCCCOc1cccc(C2OC(=O)NC2=O)c1 (stereo unspecified) | pEC50 [6]: 7.28; bioavailability (in vivo [3]): 27%; half-life (in vivo [7]): 3.6 h; pIC50 [8]: 7.10; AUC (Rattus norvegicus [9]): 1.1 µM
17 | 5.82 | < 5.52 | CCCc1cc(-c2ccccc2)ccc1OCCCOc1cccc(C2OC(=O)NC2=O)c1 (stereo unspecified) | –
18 | 6.77 | < 5.52 | CCCc1cc(C(=O)c2ccccc2)ccc1OCCCOc1cccc(C2SC(=O)NC2=O)c1 (stereo unspecified) | –
19 | 6.85 | – | CCCc1cc(-c2noc3ccccc23)ccc1OCCCOc1cccc(C2SC(=O)NC2=O)c1 (stereo unspecified) | –
